In general, Kd refers to the constant that tells how readily two partners part at equilibrium.

Data on one molecule can be found in PMC12697865, “ZFPL1 Promotes Colorectal Cancer Progression by Stabilizing ASS1 to Drive the Urea Cycle and M2 Macrophage‐Mediated Metastatic Colonization” (Advanced Science, 2025).

This assay addresses T1, zinc finger protein-like 1 (ZFPL1) (Homo sapiens, UniProt O95159).
T1 sequence (O95159 1-310): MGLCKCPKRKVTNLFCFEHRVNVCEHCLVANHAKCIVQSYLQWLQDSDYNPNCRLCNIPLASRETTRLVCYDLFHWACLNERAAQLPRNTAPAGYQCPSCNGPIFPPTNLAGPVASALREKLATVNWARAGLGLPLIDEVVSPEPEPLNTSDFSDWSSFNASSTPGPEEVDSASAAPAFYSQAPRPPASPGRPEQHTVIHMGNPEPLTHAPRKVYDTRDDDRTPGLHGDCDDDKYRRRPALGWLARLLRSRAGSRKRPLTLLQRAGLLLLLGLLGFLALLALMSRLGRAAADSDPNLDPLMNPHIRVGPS
Briefly: microscale thermophoresis (MST) with fluorescently labelled ZFPL1. It is filed as binding. Background: In MST a laser heats a spot of the sample, and binding alters the fluorescence response.

`O=C(/C=C/c1ccc(O)c2c1[C@H](C(=O)O[C@H](Cc1ccc(O)c(O)c1)C(=O)O)[C@@H](c1ccc(O)c(O)c1)O2)O[C@H](Cc1ccc(O)c(O)c1)C(=O)O` [Salvianolic acid B] showed a Kd of 8.52 µM.
